Calls of active or inactive are those of the source. The rule behind the calls is not given here.
Columns and labels:
[1] = test system: HeLa; experiment: Antiproliferative activity against human HeLa cells assessed as reduction in cell viability by MTS assay; assay type: functional, cell-based
[2] = test system: T-24; experiment: Antiproliferative activity against human T24 cells assessed as reduction in cell viability by MTS assay; assay type: functional, cell-based
[3] = test system: A549; experiment: Antiproliferative activity against human A549 cells assessed as reduction in cell viability by MTS assay; assay type: functional, cell-based
[4] = test system: HepG2; experiment: Antiproliferative activity against human HepG2 cells assessed as reduction in cell viability at 0.5 uM by MTS assay; assay type: functional, cell-based; details: TDE = time-dependent effect
[5] = test system: ACHN; experiment: Antiproliferative activity against human ACHN cells assessed as reduction in cell viability at 0.5 uM measured up to 72 hrs by MTS assay; assay type: functional, cell-based
[6] = test system: HeLa; experiment: Inhibition of colony formation in human HeLa at 0.1 uM after 2 weeks by trypan blue staining based assay relative to control; assay type: functional; details: 336 h
[7] = test system: HepG2; experiment: Induction of ROS generation in human HepG2 cells at 0.5 uM by DCFH-DA staining based fluorescence assay; assay type: functional, cell-based; details: TDE = time-dependent effect
[8] = test system: T-24; experiment: Induction of apoptosis in human T24 cells assessed as increase in cleaved PARP1 level at 0.25 to 2 uM after 12 hrs by Western blot analysis; assay type: functional, cell-based
[9] = test system: HepG2; experiment: Induction of autophagy in human HepG2 cells assessed as increase in formation of autophagosomes at 0.5 uM by TEM analysis; assay type: functional, cell-based; details: TDE = time-dependent effect
[10] = test system: HepG2; experiment: Induction of endoplasmic reticulum stress in human HepG2 cells assessed as increase in […] expression at 0.5 uM after 4 hrs by anti-ATF6 antibody staining based fluorescence microscopic method; assay type: functional, cell-based
[11] = test system: HepG2; experiment: Induction of apoptosis in human HepG2 cells assessed as increase in cleaved PARP level by measuring ratio of cleaved PARP to total PARP level at 0.5 uM after 12 hrs by Western blot analysis; assay type: functional
[12] = test system: HepG2; experiment: Induction of autophagy in human HepG2 cells assessed as ratio of LC3-2 to total Erk1/2 protein level at 0.5 uM after 4 hrs by Western blot analysis (reference value: 1); assay type: functional
[13] = target: Serine/threonine-protein kinase mTOR (Homo sapiens) (UniProt P42345); experiment: Inhibition of mTOR phosphorylation at S2448 residue in human HepG2 cells assessed as ratio of phosphorylated mTOR to total mTOR level at 0.05 uM after 4 hrs by Western blot analysis (reference value: 1); assay type: cell-based
[14] = target: RAC-alpha serine/threonine-protein kinase (Homo sapiens) (UniProt P31749); experiment: Inhibition of AKT phosphorylation at S473 residue in human HepG2 cells assessed as ratio of phosphorylated Akt to total Akt level at 0.5 uM after 4 hrs by Western blot analysis (reference value: 1); assay type: cell-based
Chain of RAC-alpha serine/threonine-protein kinase (Homo sapiens) (P31749 whole entry): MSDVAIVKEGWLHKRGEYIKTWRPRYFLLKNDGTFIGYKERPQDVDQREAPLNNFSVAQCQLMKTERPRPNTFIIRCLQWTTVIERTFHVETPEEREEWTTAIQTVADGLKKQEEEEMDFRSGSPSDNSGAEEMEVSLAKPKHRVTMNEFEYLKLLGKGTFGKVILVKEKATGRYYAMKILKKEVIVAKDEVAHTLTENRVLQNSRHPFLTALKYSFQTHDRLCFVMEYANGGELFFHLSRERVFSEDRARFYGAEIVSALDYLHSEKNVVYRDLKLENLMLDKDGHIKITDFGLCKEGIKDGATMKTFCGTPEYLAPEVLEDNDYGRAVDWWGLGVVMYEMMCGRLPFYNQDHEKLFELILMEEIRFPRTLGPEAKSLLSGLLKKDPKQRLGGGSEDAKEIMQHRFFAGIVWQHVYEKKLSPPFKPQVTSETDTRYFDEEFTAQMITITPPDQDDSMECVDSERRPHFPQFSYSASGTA

[15] = test system: HepG2; experiment: Activation of AMPKalpha in human HepG2 cells assessed as ratio of phosphorylated AMPKalpha at T172 residue to total ERK level at 0.5 uM incubated for 4 hrs by Western blot analysis (reference value: 1); assay type: cell-based
[16] = test system: HepG2; experiment: Activation of AMPKalpha in human HepG2 cells assessed as ratio of ACCalpha phosphorylation at S79 residue to total ERK level at 0.5 uM incubated for 4 hrs by Western blot analysis (reference value: 1); assay type: cell-based
[17] = test system: HepG2; experiment: Induction of autophagy in human HepG2 cells assessed as ratio of LC3-2 level to total Erk1/2 protein level at 0.5 uM after 4 hrs in presence of CC and CQ by Western blot analysis relative to CC; assay type: functional
[18] = test system: HepG2; experiment: Activation of AMPKalpha in human HepG2 cells assessed as ratio of phosphorylated AMPKalpha at T172 residue to total ERK level at 0.5 uM incubated for 4 hrs in presence of CC by Western blot analysis relative to CC; assay type: cell-based
[19] = test system: HepG2; experiment: Induction of autophagy in human HepG2 cells assessed as ratio of LC3-2 level to total ERK level at 0.5 uM after 2 hrs by Western blot analysis (reference value: 1); assay type: functional
[20] = test system: HepG2; experiment: Induction of autophagy in human HepG2 cells assessed as ratio of LC3-2 level to total ERK level at 0.5 uM after 2 hrs in presence of CQ by Western blot analysis (reference value: 1); assay type: functional
[21] = test system: HepG2; experiment: Induction of autophagy in human HepG2 cells assessed as ratio of LC3-2 level to total ERK level at 0.5 uM after 2 hrs in presence of 2-DG and CQ by Western blot analysis (reference value: 3.9); assay type: functional
[22] = test system: HepG2; experiment: Induction of autophagy in human HepG2 cells ratio of LC3-2 level to total ERK level at 0.5 uM after 2 hrs in presence of CQ by Western blot analysis relative to CQ; assay type: functional
[23] = test system: HepG2; experiment: Induction of autophagy in human HepG2 cells ratio of LC3-2 level to total ERK level at 0.5 uM after 2 hrs in presence of 2-DG and CQ by Western blot analysis relative to 2-DG; assay type: functional
[24] = test system: HepG2; experiment: Induction of autophagy in human HepG2 cells assessed as ratio of LC3-2 level to total ERK level at 0.5 uM after 2 hrs in presence of PFK15 and CQ by Western blot analysis (reference value: 1.1); assay type: functional
[25] = test system: HepG2; experiment: Induction of autophagy in human HepG2 cells assessed as ratio of LC3-2 level to total ERK level at 0.5 uM after 2 hrs in presence of PFK15 and CQ by Western blot analysis relative to PFK15; assay type: functional
[26] = test system: HepG2; experiment: Induction of autophagy in human HepG2 cells assessed as ratio of LC3-2 level to total ERK level at 0.5 uM after 2 hrs in presence of PFKFB3 siRNA by Western blot analysis (reference value: 0.8); assay type: functional
[27] = test system: HepG2; experiment: Induction of autophagy in human HepG2 cells assessed as ratio of LC3-2 level to total ERK level at 0.5 uM after 2 hrs in presence of HK2 siRNA and CQ by Western blot analysis (reference value: 3.1); assay type: functional
[28] = test system: HepG2; experiment: Induction of autophagy in human HepG2 cells assessed as ratio of LC3-2 level to total ERK level at 0.5 uM after 2 hrs in presence of HK2 siRNA and CQ by Western blot analysis relative to HK2 siRNA; assay type: functional
[29] = test system: HepG2; experiment: Antiproliferative activity against human HepG2 cells assessed as reduction in cell viability at 5 uM by MTS assay; assay type: functional, cell-based; details: TDE = time-dependent effect
[30] = test system: HepG2; experiment: Inhibition of colony formation in human HepG2 at 1 to 5 uM after 2 weeks by trypan blue staining based assay; assay type: functional, cell-based
[31] = test system: HeLa; experiment: Inhibition of colony formation in human HeLa at 1 to 5 uM after 2 weeks by trypan blue staining based assay; assay type: functional, cell-based
[32] = test system: HepG2; experiment: Induction of autophagy in human HepG2 cells assessed as increase in formation of autophagosomes at 0.5 uM after 2 to 48 hrs by TEM analysis; assay type: functional, cell-based
[33] = test system: HepG2; experiment: Induction of autophagy in human HepG2 cells assessed as increase in formation of autophagosome-like vacuoles at 0.5 uM after 2 to 48 hrs by TEM analysis; assay type: functional, cell-based
[34] = test system: HepG2; experiment: Induction of autophagy in human HepG2 cells assessed as ratio of LC3-2 level to total ERK level at 0.5 uM after 2 hrs in presence of 2-DG by Western blot analysis (reference value: 1.1); assay type: functional

SMILES	Activity [1]	Activity [2]	Activity [3]	Activity [10]	Ratio [12]	Ratio [13]	Ratio [14]	Ratio [15]	Ratio [16]	fold change (FC) [17]	fold change (FC) [18]	Ratio [19]	Ratio [20]	Ratio [21]	fold change (FC) [22]	fold change (FC) [23]	Ratio [24]	fold change (FC) [25]	Ratio [26]	Ratio [27]	also measured
CC[C@@]12SS[C@]3(C(=O)N1C)[C@@H](O)C1(C45c6ccccc6N[C@@H]4N4C(=O)[C@]6([C@@H](C)O)SS[C@]4(C(=O)N6C)[C@H]5O)c4ccccc4N[C@@H]1N3C2=O (stereo not given in full)	Active	Active	Active	inactive	1.2	1.4	1.4	1.2	1.4	0.9	0.8	1.5	3.1	3.7	2.1	3.7	4.4	3.4	0.9	4.7	Activity [4]: Tde; Activity [5]: Active; inhibition at 0.1 µM [6]: 100%; Activity [7]: Tde; Activity [8]: Active; Activity [9]: Tde; Ratio [11]: 0.1; fold change (FC) [28]: 2.8
CCC1(SC)C(=O)N2[C@H]3N(C)c4ccccc4C3(C34c5ccccc5N(C)[C@@H]3N3C(=O)C(SC)([C@@H](C)O)N(C)C(=O)C3(SC)[C@H]4O)[C@H](O)C2(SC)C(=O)N1C (stereo not given in full)	Active	Active	Active	inactive	1.1	1.8	1.4	1.4	1.7	1.3	0.6	1.6	3.2	3.7	2.2	3.7	3.9	2.4	1	7.2	Activity [29]: Tde; inhibition [30]: Active; inhibition [31]: Active; Activity [32]: Active; Activity [33]: Active; Ratio [34]: 1; fold change (FC) [28]: 6.6
